According to the CombiSolv-Exp solvation set (Vermeire and Green 2021):

Test: solvent given as SMILES

CCOCC
Settings	solvation free energy, 298 K [kcal/mol]
in C1CCOC1	-3.51
in C=CCCCCCCCCCCCCCC	-2.74
in CC(=O)N(C)C	-2.81
in CC(C)=O	-3.25
in CCCCCCCC	-3.05
in CCCCCCCCCCCCCCCC	-2.79
in CCCCCCCCCCO	-2.93
in CCCCCCCCO	-2.99
in CCCCCO	-3.12
in CCCCCl	-3.4
in CCCCN(C=O)CCCC	-2.88
in CCCCO	-3.1
in CCCCOCCCC	-3.23
in CCN1CCCC1=O	-2.77
in CCN(CC)C(C)=O	-2.95
in CCNC(C)=O	-2.82
in CCNC=O	-2.78
in CCO	-3.26
in CCOC(C)(C)C	-3.23
in CN1CCCC1=O	-2.77
in CN1CCCCC1=O	-2.77
in CN(C)C=O	-2.81
in CNC(C)=O	-2.77
in CNC=O	-2.66
in CO	-3.26
in CS(C)=O	-2.2
in Cc1cccc(C)c1	-3.29
in ClC(Cl)(Cl)Cl	-3.52
in ClCCCl	-3.44
in ClCCl	-3.92
in NC=O	-1.93
in O	-1.74
in [2H]O[2H]	-1.96

NCc1ccccc1
Settings	solvation free energy, 298 K [kcal/mol]
in O	-6.34

CC(=O)OC1CC(C)CCC1C(C)C (stereo not drawn)
Settings	solvation free energy, 298 K [kcal/mol]
in O	-2.59

CC1=CC(=O)C(C(C)C)CC1 (stereo not drawn)
Settings	solvation free energy, 298 K [kcal/mol]
in O	-4.51

O=Cc1ccccc1
Settings	solvation free energy, 298 K [kcal/mol]
in CCCCCC	-5.53
in CCCCCCC	-5.5
in CCCCCCCCCCCCCCCC	-5.37
in O	-4.02

CCCCCC(C)O (stereo not drawn)
Settings	solvation free energy, 298 K [kcal/mol]
in O	-3.88

CCc1ccccc1
Settings	solvation free energy, 298 K [kcal/mol]
in C1CCOC1	-6.03
in C1COCCO1	-5.7
in C=CCCCCCCCCCCCCCC	-5.07
in CC#N	-5.19
in CC(=O)N(C)C	-5.46
in CC(C)(C)O	-4.99
in CC(C)CC(C)(C)C	-5.3
in CC(C)CO	-4.95
in CC(C)O	-4.88
in CC(O)CO	-4.1
in CCC#N	-5.78
in CCC(C)=O	-5.62
in CCCC#N	-5.6
in CCCCC(CC)COC(=O)CCCCC(=O)OCC(CC)CCCC	-5.37
in CCCCCC	-5.35
in CCCCCCC	-5.36
in CCCCCCCCCC	-5.23
in CCCCCCCCCCCCCCCC	-5.16
in CCCCCCCCO	-5.05
in CCCCN(C=O)CCCC	-5.44
in CCCCOC(=O)c1ccccc1C(=O)OCCCC	-5.38
in CCCO	-4.93
in CCO	-4.83
in CCOC(=O)c1ccccc1C(=O)OCC	-5.23
in CN(C)C=O	-5.41
in CNC(C)=O	-5.05
in CNC=O	-4.82
in CO	-4.86
in COCCO	-5.05
in Clc1ccccc1	-5.84
in NC=O	-3.26
in O	-0.72
in O=CN1CCOCC1	-5.01
in O=Cc1ccco1	-5.04
in OCCCCCO	-4.4
in OCCCCO	-4.2
in OCCCO	-3.91
in OCCO	-3.36
in OCCOCCO	-4.15
in OCCOCCOCCO	-4.31
in OCCOCCOCCOCCO	-4.38

Cc1cccc(N)c1
Settings	solvation free energy, 298 K [kcal/mol]
in O	-5.69

CCC(C)CC
Settings	solvation free energy, 298 K [kcal/mol]
in C=CCCCCCCCCCCCCCC	-3.42
in CC#N	-2.58
in CCCCCCCCCCCCCCCC	-3.55
in CCCCCO	-3.33
in CCCCO	-3.19
in O	2.47

Cc1ccncc1C
Settings	solvation free energy, 298 K [kcal/mol]
in O	-5.22

COS(=O)(=O)OC
Settings	solvation free energy, 298 K [kcal/mol]
in O	-5.1

O=C(O)c1cc(O)c(O)c(O)c1
Settings	solvation free energy, 298 K [kcal/mol]
in CCO	-19.8

O=[N+]([O-])c1cc[n+]([O-])cc1
Settings	solvation free energy, 298 K [kcal/mol]
in CC(C)CC(C)(C)C	-7.06
in CCCCCC	-7.08
in CCCCCCC	-7.12
in CCCCCCCC	-7.13
in CCCCCCCCCC	-7.16

CN(C)CCOC(c1ccccc1)c1ccccc1
Settings	solvation free energy, 298 K [kcal/mol]
in O	-9.34

ClC1CCCCC1
Settings	solvation free energy, 298 K [kcal/mol]
in O	-0.93

CC(=O)OCC(COC(C)=O)OC(C)=O
Settings	solvation free energy, 298 K [kcal/mol]
in O	-8.84

c1ccc(P(c2ccccc2)c2ccccc2)cc1
Settings	solvation free energy, 298 K [kcal/mol]
in CC(C)O	-15.4
in CCO	-15.7
in CO	-15.4

Oc1ccc2ccccc2c1
Settings	solvation free energy, 298 K [kcal/mol]
in Brc1ccccc1	-10.4
in CC(C)CC(C)(C)C	-8.21
in CCCCCC	-8.46
in CCCCCCC	-8.53
in CCCCCCCC	-8.63
in CCCCCCCCCC	-8.61
in ClC(Cl)(Cl)Cl	-9.45
in ClC(Cl)Cl	-10.5
in Clc1ccccc1	-10.3
in O	-8.12
